Measurements as given in BindingDB's records for doi:10.1021/bi4005182 (The Scripps Research Institute, 2013).

Target: Bifunctional purine biosynthesis protein ATIC (Homo sapiens, UniProt P31939)
Test: Enzyme Activity Assays
Description: Enzyme activity assays of recombinant hGAR Tfase and recombinant hAICAR Tfase were performed as previously described. Kinetics of the enzyme reactions were monitored for 2 min after reaction initiation.

Bifunctional purine biosynthesis protein ATIC, sequence (P31939 whole entry): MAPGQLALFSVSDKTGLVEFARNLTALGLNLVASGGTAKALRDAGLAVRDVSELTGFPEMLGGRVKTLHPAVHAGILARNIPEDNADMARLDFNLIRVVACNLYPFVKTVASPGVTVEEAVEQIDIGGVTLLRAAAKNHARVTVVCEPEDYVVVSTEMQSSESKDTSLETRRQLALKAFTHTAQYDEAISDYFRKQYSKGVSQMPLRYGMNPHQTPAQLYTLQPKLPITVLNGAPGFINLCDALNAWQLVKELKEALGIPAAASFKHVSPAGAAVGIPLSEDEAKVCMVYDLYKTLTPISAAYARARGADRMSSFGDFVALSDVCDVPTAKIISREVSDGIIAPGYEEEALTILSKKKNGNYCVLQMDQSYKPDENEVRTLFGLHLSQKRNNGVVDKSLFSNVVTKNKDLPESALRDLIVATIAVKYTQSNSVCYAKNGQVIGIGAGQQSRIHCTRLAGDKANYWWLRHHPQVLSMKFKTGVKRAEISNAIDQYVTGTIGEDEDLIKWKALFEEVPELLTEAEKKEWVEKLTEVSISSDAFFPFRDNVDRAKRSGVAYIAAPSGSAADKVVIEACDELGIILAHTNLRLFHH

Ki: > 100 µM
Compound: Nc1nc2c(c(=O)[nH]1)C[C@@H](CCc1ccc(C(=O)NC(CCC(=O)O)C(=O)O)cc1)CN2 (stereo partly specified) [Lometrexol (3)]
